Laboratory results: patent US20240294509A1, “PYRIDAZINONE COMPOUND AS PARP7 INHIBITOR” (Euregen Biopharma Co., Ltd., priority 2021, published 2024)

Tests used:
NCI-H1373 cells = test: Inhibitory effect on the proliferation of NCI-H1373 cells (CellTiter-Glo); format: cell-based; conditions: Homo sapiens, 144 h, 6 days treatment
Source text: 1. Experimental Principle: NCI-H1373 cells are a type of lung adenocarcinoma cells that overexpress PARP7.
2. Experimental Materials: NCI-H1373 cells were obtained from Nanjing Cobioer Biosciences Co., Ltd. CellTiter-Glo® (cell viability chemiluminescent assay reagent) was purchased from Promega (Catalog No. G7571). RPMI-1640 medium was obtained from ATCC (Catalog No. 30-2001). RPMI-1640 medium, penicillin/streptomycin antibiotics were purchased from WISENT. Fetal bovine serum was obtained from Biosera. The Nivo multimode reader was procured from PerkinElmer.
3. Experimental Method: NCI-H1373 cells were seeded in a white 96-well plate with 80 μL of cell suspension per well, containing 3000 NCI-H1373 cells. The cell plate was incubated overnight in a carbon dioxide (CO2) incubator.
The test compounds were serially diluted 5-fold to the 9th concentration, ranging from 2 mmol/L to 5.12 nmol/L, for a duplicate assay. 78 μL of culture medium was added to the intermediate plate, and then, according to the corresponding positions, 2 μL of each gradient-diluted compound was transferred to the intermediate plate. After thorough mixing, 20 μL of the compound solution was transferred to the cell plate. The compound concentration range in the cell plate ranged from 10 μmol/L to 0.0256 nmol/L. The cell plate was incubated in a CO2 incubator for 6 days.
Another cell plate was prepared, and the signal values were read on the day of dosing to obtain the maximum value referred to as Max in the following equation for data analysis. 25 μL of cell viability chemiluminescent assay reagent was added to each well of this cell plate, and it was incubated at room temperature for 10 minutes to stabilize the luminescent signal. Readings were taken using a multimode reader.
After 6 days of treatment, 25 μL of cell viability chemiluminescent assay reagent was added to each well of the cell plate, and it was incubated at room temperature for 10 minutes to stabilize the luminescent signal. Readings were taken using a multimode reader.
The IC50 value was determined by four-parameter curve fitting (obtained by using the “log(inhibitor) vs. response—Variable slope” model in GraphPad Prism).

PARP7 = PARP7 (Homo sapiens (Human), UniProt Q7Z3E1)
PARP7, sequence (Q7Z3E1 whole entry): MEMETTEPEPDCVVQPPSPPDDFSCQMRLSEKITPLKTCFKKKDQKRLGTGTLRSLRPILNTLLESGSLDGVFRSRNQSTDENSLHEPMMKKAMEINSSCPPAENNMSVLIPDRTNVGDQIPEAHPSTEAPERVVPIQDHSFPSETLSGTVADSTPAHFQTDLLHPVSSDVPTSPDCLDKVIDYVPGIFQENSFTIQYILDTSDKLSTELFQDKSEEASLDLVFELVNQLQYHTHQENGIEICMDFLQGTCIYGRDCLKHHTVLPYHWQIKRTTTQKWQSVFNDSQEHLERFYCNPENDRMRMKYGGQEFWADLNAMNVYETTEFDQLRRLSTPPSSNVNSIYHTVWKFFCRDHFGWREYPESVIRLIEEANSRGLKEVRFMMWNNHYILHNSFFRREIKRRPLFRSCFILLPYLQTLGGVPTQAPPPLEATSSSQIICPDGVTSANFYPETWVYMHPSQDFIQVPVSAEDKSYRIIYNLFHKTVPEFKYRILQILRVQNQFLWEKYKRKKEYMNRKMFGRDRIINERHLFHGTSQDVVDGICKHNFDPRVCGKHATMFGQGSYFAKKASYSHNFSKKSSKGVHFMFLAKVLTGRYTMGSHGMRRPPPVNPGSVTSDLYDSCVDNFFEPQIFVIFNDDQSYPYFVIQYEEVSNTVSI
Protocol: (§5) Experimental Principle: The inhibitory effect of the test substance on the enzymatic activity of PARP1/7 is assessed by using an Enzyme-Linked Immunosorbent Assay (ELISA).
(§6) (1) Pre-coating: Add 100 μL of a PBS buffer (10 mM NaH2PO4, 10 mM Na2HPO4, 150 mM NaCl, pH 7.4) containing 20 g/mL of histone to each well of a 96-well plate, and incubate at 4° C. overnight.
(§7) (3) Add 5 μL of the test substance or solvent to each well.
(§8) (4) Add 20 μL of(PARP1 or PARP7 (50 ng/well), and incubate at 30° C. for 1 hour.
(§9) (5) Add 50 μL of streptavidin-HRP to the reaction mixture, and incubate at 30° C. for 30 minutes.
(§10) (6) Finally, add 100 μL of a citrate buffer containing H2O2 and luminol (0.1 M, pH 5.4), and measure the luminescent signal using a microplate reader (Molecular Devices SpectraMax M5).
(§11) (7) Calculate the inhibition rate of PARP1 or PARP7 enzyme activity as [(control group−treatment group)/control group]×10000. Fit the dose-response data with standard dilutions using Prism GraphPad software and calculate the concentration required to achieve 5000 inhibition of PARP1 or PARP7 enzyme activity (IC50).

PARP1 = PARP1 (Homo sapiens (Human), UniProt P09874)
PARP1, sequence (P09874 whole entry): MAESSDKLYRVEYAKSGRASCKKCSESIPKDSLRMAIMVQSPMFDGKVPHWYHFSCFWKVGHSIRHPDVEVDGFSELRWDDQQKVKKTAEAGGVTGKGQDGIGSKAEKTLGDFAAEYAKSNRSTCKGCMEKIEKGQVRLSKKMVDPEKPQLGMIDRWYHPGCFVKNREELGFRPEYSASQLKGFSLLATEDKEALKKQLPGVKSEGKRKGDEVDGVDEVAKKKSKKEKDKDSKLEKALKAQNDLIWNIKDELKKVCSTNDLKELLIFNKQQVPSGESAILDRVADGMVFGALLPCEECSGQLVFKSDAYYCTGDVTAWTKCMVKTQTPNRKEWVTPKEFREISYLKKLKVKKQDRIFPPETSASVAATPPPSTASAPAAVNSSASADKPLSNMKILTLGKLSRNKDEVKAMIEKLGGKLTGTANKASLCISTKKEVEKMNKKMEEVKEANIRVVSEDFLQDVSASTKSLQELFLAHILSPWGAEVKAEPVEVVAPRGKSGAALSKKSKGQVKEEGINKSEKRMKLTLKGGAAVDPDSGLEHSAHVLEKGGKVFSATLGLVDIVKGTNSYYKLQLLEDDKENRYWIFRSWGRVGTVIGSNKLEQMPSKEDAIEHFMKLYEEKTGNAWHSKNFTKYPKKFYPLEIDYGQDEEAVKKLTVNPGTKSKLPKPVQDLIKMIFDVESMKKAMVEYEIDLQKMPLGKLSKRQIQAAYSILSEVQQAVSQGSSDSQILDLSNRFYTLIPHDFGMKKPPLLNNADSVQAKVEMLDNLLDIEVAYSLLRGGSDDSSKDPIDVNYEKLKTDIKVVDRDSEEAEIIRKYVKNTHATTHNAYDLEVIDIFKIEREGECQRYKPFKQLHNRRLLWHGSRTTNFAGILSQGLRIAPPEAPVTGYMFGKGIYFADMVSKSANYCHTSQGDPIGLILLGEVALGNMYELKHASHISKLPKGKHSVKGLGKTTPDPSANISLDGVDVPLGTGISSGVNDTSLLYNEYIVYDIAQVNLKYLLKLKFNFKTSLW
Protocol: as §5, §6, §7, §8, §9, §10, §11

[1] = Pharmacokinetic properties in SD rats after single intravenous injection and oral administration; format: in vivo; conditions: SD male rats; for F: oral bioavailability; for AUC(0-inf) / Cmax / clearance / half-life: rat, plasma
Source text: 1. Test purpose: to determine the pharmacokinetic characteristics of some of the example compound of the present invention in SD rats after single intravenous injection(IV) and oral administration(PO) by LC-MS/MS method.
2. Test material: the test drug is self-made from the example compounds of the present invention; Positive control compound RBN2397 purchased from Shanghai BioChemPartner Biotechnology Co., Ltd. SD male rats were obtained from the Laboratory Animal Management Department of Shanghai Family Planning Research Institute. Animal production license number (SCXK (Shanghai) 2018-0006).
Preparation of 0.5% methyl cellulose: 5 g of methyl cellulose were weighed and dissolved in 1000 mL of purified water.
Preparation of oral formulation: A required amount of test compound was weighed and dissolved in 0.5% methyl cellulose solution to obtain a suspension or solution of 0.5 mg/mL or 1.0 mg/mL.
Preparation of intravenous injection formulation: A required amount of test compound was weighed, and dissolved in 0.5 mL of dimethyl sulfoxide to prepare a solution of 4 mg/mL. 0.25 mL of the above solution was added into 0.5 mL of polyethylene glycol 15 hydroxystearate (solutol) and 4.25 mL of physiological saline to obtain a solution of 0.2 mg/mL.
Administration: SD male rats were orally administered (PO) after fasting overnight, and fed 4 hours after administration.
Sample Collection: blood was collected through jugular vein or other suitable vein, and 0.2 mL of blood was collected at each time point. Samples were placed into tubes containing ethylenediamine tetraacetic acid dipotassium salt and kept on ice before centrifugation. Within 1 hour after blood collection, the blood samples were centrifuged at 2-8° C. and 6800 g for 6 minutes and stored at −80° C. The time point for blood collection was 0.083, 0.25, 0.5, 1, 2, 4, 8 and 24 hours after intravenous administration, and 0.25, 0.5, 1, 2, 4, 6, 8 and 24 hours after oral administration.
The intravenous dosage was 1 mg/kg, and the pharmacokinetic parameters for oral administration were standardized to a 1 mg/kg dose.

[2] = Metabolic stability in dog liver microsomes; format: in vitro ADME; conditions: pH 7.4, 1.00 μM compound, 0.5 mg/mL protein, read-out: intrinsic clearance, Clint
Protocol: (§1) 1. Experiment purpose: This study aims to determine the metabolic stability of selected compounds from the embodiments of the invention in liver microsomes of humans, dogs, monkeys, rats, and mice using the LC-MS/MS method.
(§2) Test compounds: The test drug is self-made from the example compounds of the present invention; Positive control compound RBN2397 purchased from Shanghai BioChemPartner Biotechnology Co., Ltd.
(§3) Liver microsomes obtained from Xenotech.
(§4) The incubation was carried out at 37° C. in a CO2 incubator. The reactions were terminated by adding 150 μL of cold acetonitrile at different time points (0, 5, 15, 30, and 45 minutes). The 96-well plate was shaken at 600 rpm for 10 minutes, followed by centrifugation at 6000 rpm for 15 minutes. The supernatant (80 μL) was mixed with 140 μL of pure water, and the remaining amount of the compound was determined using LC-MS/MS. The intrinsic clearance (Clint) was calculated using the formula Clint=k/liver microsomes protein concentration, where “k” is the linear regression slope of log compound remaining percentage against incubation time.

[3] = Metabolic stability in rat liver microsomes; format: in vitro ADME; conditions: pH 7.4, 1.00 μM compound, 0.5 mg/mL protein, read-out: intrinsic clearance, Clint
Protocol: as §1, §2, §3, §4

[4] = Metabolic stability in human liver microsomes; format: in vitro ADME; conditions: pH 7.4, 1.00 μM compound, 0.5 mg/mL protein, read-out: intrinsic clearance, Clint
Protocol: as §1, §2, §3, §4

[5] = Oral gavage, standardized to a 1 mg/kg dose

## O=C(CC[C@@H]1C[C@@H](c2ccccc2)CN1c1cc(C(F)(F)F)c(=O)[nH]n1)N1CCN(c2ncc(C(F)(F)F)cn2)CC1 [Compound 52]
NCI-H1373 cells
  IC50: 95.9 nM

## CO[C@@H]1C[C@@H](CCC(=O)N2CCN(c3ncc(C(F)(F)F)cn3)CC2)N(c2cc(C(F)(F)F)c(=O)[nH]n2)C1 [Compound 44]
PARP7
  IC50: 7 nM
PARP1
  IC50: 18 nM

## O=C(COC[C@@H]1CCCN1c1cc(C(F)(F)F)c(=O)[nH]n1)N1CCN(c2ncc(C(F)(F)F)cn2)CC1 [Compound 1]
NCI-H1373 cells
  IC50: 38 nM
[1]; Oral gavage
  F: 21.97%
[1]; Intravenous injection, 1 mg/kg
  AUC(0-inf): 360 ng·h/mL
  Cmax: 720 ng/mL
  clearance: 46.9 mL/min/kg
  half-life: 34.8 min
[1]; [5]
  AUC(0-inf): 89.2 ng·h/mL
  Cmax: 53.5 ng/mL

## O=C(CC[C@@H]1C[C@@H]2CCC[C@@H]2N1c1cc(C(F)(F)F)c(=O)[nH]n1)N1CCN(c2ncc(C(F)(F)F)cn2)CC1 [Compound 24]
PARP7
  IC50: 2.1 nM
PARP1
  IC50: 4.1 nM

## CO[C@@H]1C[C@@H](C(=O)N2CCN(c3ncc(C(F)(F)F)cn3)CC2)N(c2cc(C(F)(F)F)c(=O)[nH]n2)C1 [Compound 70]
NCI-H1373 cells
  IC50: 58.2 nM

## C[C@@H]1C[C@@H](CCC(=O)N2CCN(c3ncc(C(F)(F)F)cn3)CC2)N(c2cc(C(F)(F)F)c(=O)[nH]n2)C1 [Compound 29]
PARP7
  IC50: 25.6 nM
PARP1
  IC50: 18.3 nM

## O=C(CC[C@@H]1C[C@@H](O)CN1c1cc(C(F)(F)F)c(=O)[nH]n1)N1CCN(c2ncc(C(F)(F)F)cn2)CC1 [Compound 31]
PARP7
  IC50: 4.4 nM
PARP1
  IC50: 25.9 nM

## O=C(CC[C@@H]1C[C@H](Oc2ccccc2)CN1c1cc(C(F)(F)F)c(=O)[nH]n1)N1CCN(c2ncc(C(F)(F)F)cn2)CC1 [Compound 19]
[1]; Oral gavage
  F: 14.34%
[1]; Intravenous injection, 1 mg/kg
  AUC(0-inf): 397 ng·h/mL
  Cmax: 477 ng/mL
  clearance: 42.2 mL/min/kg
  half-life: 40.8 min
[1]; [5]
  AUC(0-inf): 60.7 ng·h/mL
  Cmax: 15.1 ng/mL

## C[C@@H](COCCC(=O)N1CCN(c2ncc(C(F)(F)F)cn2)CC1)Nc1cn[nH]c(=O)c1C(F)(F)F [RBN-2397, reference compound]
[2]
  CLint scaled at 1 μM: 40.8 mL/min/kg
[3]
  CLint scaled at 1 μM: 144 mL/min/kg
[4]
  CLint scaled at 1 μM: 88 mL/min/kg
[1]; Oral gavage
  F: 3.76%
[1]; Intravenous injection, 1 mg/kg
  AUC(0-inf): 288 ng·h/mL
  Cmax: 634 ng/mL
  clearance: 58.1 mL/min/kg
  half-life: 20.4 min
[1]; [5]
  AUC(0-inf): 11.5 ng·h/mL
  Cmax: 5.55 ng/mL

## CCO[C@H]1C[C@@H](CCC(=O)N2CCN(c3ncc(C(F)(F)F)cn3)CC2)N(c2cc(C(F)(F)F)c(=O)[nH]n2)C1 [Compound 36]
PARP7
  IC50: 3.8 nM
PARP1
  IC50: 14.4 nM

## O=C(CC[C@@H]1C[C@@H](Oc2cncnc2)CN1c1cc(C(F)(F)F)c(=O)[nH]n1)N1CCN(c2ncc(C(F)(F)F)cn2)CC1 [Compound 63]
NCI-H1373 cells
  IC50: 12.4 nM

## O=C(CC[C@@H]1CC(F)(F)CN1c1cc(C(F)(F)F)c(=O)[nH]n1)N1CCN(c2ncc(C(F)(F)F)cn2)CC1 [Compound 23]
PARP7
  IC50: 3.2 nM
PARP1
  IC50: 9.7 nM

## CCO[C@@H]1C[C@@H](C(=O)N2CCN(c3ncc(C(F)(F)F)cn3)CC2)N(c2cc(C(F)(F)F)c(=O)[nH]n2)C1 [Compound 71]
NCI-H1373 cells
  IC50: 44.6 nM
